Experimental data from ChEMBL document CHEMBL1126278, “New neplanocin analogues. 1. Synthesis of 6'-modified neplanocin A derivatives as broad-spectrum antiviral agents” (J Med Chem, 1992).
In brackets after ≈: the same amount, converted by molar mass.

Columns and labels:
[1] = system: PRK; test: Inhibitory effect on replication of RNA virus cell morphology in PRK cell line.; type: functional, cell-based; conditions: Oryctolagus cuniculus
[2] = system: MT4; test: Inhibitory effect on replication of RNA virus cell growth in MT-4 cell line.; type: functional, cell-based; conditions: Homo sapiens
[3] = Inhibitory effect on replication of DNA virus HSV-1 (KOS) in PRK cell line.; type: functional, cell-based; conditions: Oryctolagus cuniculus
[4] = system: HeLa; test: Inhibitory effect on replication of RNA virus coxsB-4 in HeLa cell line.; type: functional, cell-based; conditions: Homo sapiens
[5] = system: PRK; test: Inhibitory effect on replication of RNA virus VSV in PRK cell line.; type: functional, cell-based; conditions: Oryctolagus cuniculus
[6] = system: MT4; test: Inhibitory effect on replication of RNA virus HIV-2 in MT-4 cell line.; type: functional, cell-based; conditions: Homo sapiens
[7] = system: HEL; test: Inhibitory effect on replication of DNA virus VZV (YS) on HEL cell line.; type: functional, cell-based; conditions: Homo sapiens
[8] = system: MDCK; test: cells; conditions: Canis lupus familiaris
[9] = system: HEL; test: Inhibitory effect on replication of DNA virus TK-VZV (07-1) on HEL cell line.; type: functional, cell-based; conditions: Homo sapiens
[10] = system: Vero; test: Inhibitory effect on replication of RNA virus TV in Vero cell line.; type: functional, cell-based; conditions: Chlorocebus sabaeus
[11] = system: PRK; test: Inhibitory effect on replication of DNA virus VV on PRK cell line.; type: functional, cell-based; conditions: Oryctolagus cuniculus
[12] = system: HeLa; test: Inhibitory effect on replication of RNA virus RSV in HeLa cell line; type: functional, cell-based; conditions: Homo sapiens
[13] = system: Vero; test: Inhibitory effect on replication of RNA virus measles on Vero cell line.; type: functional, cell-based; conditions: Chlorocebus sabaeus
[14] = system: MDCK; test: Inhibitory effect on replication of RNA virus cell morphology in MDCK cell line.; type: functional, cell-based; conditions: Canis lupus familiaris
[15] = system: MDCK; test: cells; conditions: Canis lupus familiaris; remark: listed apart in the source
[16] = system: Vero; test: (§1) Inhibitory effect on replication of RNA virus cell morphology in Vero cell line.; type: functional, cell-based, Homo sapiens; conditions: Chlorocebus sabaeus
[17] = system: HEL; test: Inhibitory effect on replication of DNA virus Cell growth on HEL cell line.; type: functional, cell-based; conditions: Homo sapiens
[18] = system: Vero; test: Inhibitory effect on replication of RNA virus SFV in Vero cell line; type: functional, cell-based; conditions: Chlorocebus sabaeus
[19] = system: HEL; test: Inhibitory effect on replication of DNA virus CMV (Davis) on HEL cell line.; type: functional, cell-based; conditions: Homo sapiens
[20] = system: HEL; test: Inhibitory effect on replication of DNA virus TK-VZV (YSR) on HEL cell line.; type: functional, cell-based; conditions: Homo sapiens
[21] = system: Vero; test: Inhibitory effect on replication of RNA virus PV-3 in Vero cell line.; type: functional, cell-based; conditions: Chlorocebus sabaeus
[22] = system: PRK; test: Inhibitory effect on replication of virus Cell morphology on PRK cell line; type: functional, cell-based; conditions: Oryctolagus cuniculus
[23] = system: MT4; test: Inhibitory effect on replication of RNA virus HIV-1 in MT-4 cell line.; type: functional, cell-based; conditions: Homo sapiens
[24] = system: Vero; test: Inhibitory effect on replication of RNA virus SV in Vero cell line.; type: functional, cell-based; conditions: Chlorocebus sabaeus
[25] = system: Vero; test: Inhibitory effect on replication of RNA virus JV in Vero cell line.; type: functional, cell-based; conditions: Chlorocebus sabaeus
[26] = Inhibitory effect on replication of DNA virus HSV-2 (G) in PRK cell line.; type: functional, cell-based; conditions: Oryctolagus cuniculus
[27] = system: HeLa; test: Inhibitory effect on replication of RNA virus VSV in HeLa cell line.; type: functional, cell-based; conditions: Homo sapiens
[28] = system: HEL; test: Inhibitory effect on replication of DNA virus CMV (AD-169) on HEL cell line.; type: functional, cell-based; conditions: Homo sapiens
[29] = system: Vero; test: Inhibitory effect on replication of RNA virus reo-1 in Vero cell line.; type: functional, cell-based; conditions: Chlorocebus sabaeus
[30] = system: HeLa; test: cells; conditions: Homo sapiens
[31] = system: HEL; test: Inhibitory effect on replication of DNA virus VZV (Oka) on HEL cell line.; type: functional, cell-based; conditions: Homo sapiens
[32] = system: HeLa; test: Inhibitory effect on replication of RNA virus cell morphology in HeLa cell line.; type: functional, cell-based; conditions: Homo sapiens
[33] = system: Vero; test: Inhibitory effect on replication of RNA virus coxsB-4 in Vero cell line; type: functional, cell-based; conditions: Chlorocebus sabaeus
[34] = system: Vero; test: Inhibitory effect on replication of RNA virus RNA synthesis in Vero cell line.; type: functional, cell-based; conditions: Chlorocebus sabaeus
[35] = system: Vero; test: as §1; type: functional, cell-based; conditions: Chlorocebus sabaeus
[36] = system: MT4; test: Inhibitory effect on replication of DNA virus RNA virus HIV-2 in MT-4 cell line.; type: functional, cell-based; conditions: Homo sapiens
[37] = system: MT4; test: Inhibitory effect on replication of DNA virus RNA virus HIV-1 in MT-4 cell line.; type: functional, cell-based; conditions: Homo sapiens
[38] = system: PRK; test: Inhibitory effect on replication of DNA virus Cell morphology on PRK cell line; type: functional, cell-based; conditions: Oryctolagus cuniculus
[39] = system: Vero; test: Inhibitory effect on replication of RNA virus protein synthesis in Vero cell line.; type: functional, cell-based; conditions: Chlorocebus sabaeus

| Structure (SMILES) | IC50 [1] [µg/mL] | IC50 [2] [µg/mL] | IC50 [3] [µg/mL] | IC50 [4] [µg/mL] | IC50 [5] [µg/mL] | IC50 [8] [µg/mL] | IC50 [10] [µg/mL] | IC50 [11] [µg/mL] | IC50 [12] [µg/mL] | IC50 [13] [µg/mL] | IC50 [14] [µg/mL] | IC50 [15] [µg/mL] | IC50 [18] [µg/mL] | IC50 [19] [µg/mL] | IC50 [21] [µg/mL] | IC50 [24] [µg/mL] | IC50 [25] [µg/mL] | IC50 [26] [µg/mL] | IC50 [27] [µg/mL] | IC50 [28] [µg/mL] | other results |
| --- | --- | --- | --- | --- | --- | --- | --- | --- | --- | --- | --- | --- | --- | --- | --- | --- | --- | --- | --- | --- | --- |
| CSCC1=C[C@@H](n2cnc3c(N)ncnc32)[C@H](O)[C@@H]1O | > 400 | 60 (≈ 205 µM) | > 400 | > 200 | 70 (≈ 239 µM) | > 100 | 40 (≈ 136 µM) | 70 (≈ 239 µM) | > 40 | 40 (≈ 136 µM) | > 100 | > 100 | > 400 | 1 (≈ 3.41 µM) | > 200 | > 200 | 40 (≈ 136 µM) | > 400 | > 200 | 1.5 (≈ 5.11 µM) | IC50 [6]: > 40 µg/mL; IC50 [7]: 2 µg/mL (≈ 6.82 µM); IC50 [9]: 2 µg/mL (≈ 6.82 µM); IC50 [16]: > 400 µg/mL; IC50 [17]: 9 µg/mL (≈ 30.7 µM); IC50 [20]: 5 µg/mL (≈ 17 µM); IC50 [22]: > 400 µg/mL; IC50 [23]: > 40 µg/mL; IC50 [29]: 40 µg/mL (≈ 136 µM); IC50 [30]: > 200 µg/mL; IC50 [31]: 2.5 µg/mL (≈ 8.52 µM); IC50 [32]: > 400 µg/mL; IC50 [33]: > 200 µg/mL |
| C=CC1=C[C@@H](n2cnc3c(N)ncnc32)[C@H](O)[C@@H]1O | > 400 | 6 (≈ 23.1 µM) | > 200 | > 400 | 20 (≈ 77.1 µM) | > 100 | 10 (≈ 38.6 µM) | 20 (≈ 77.1 µM) | 100 (≈ 386 µM) | 40 (≈ 154 µM) | > 100 | > 100 | > 200 | 17 (≈ 65.6 µM) | 40 (≈ 154 µM) | > 200 | 8 (≈ 30.9 µM) | > 200 | 300 (≈ 1160 µM) | 18 (≈ 69.4 µM) | IC50 [34]: 14 µg/mL (≈ 54 µM); IC50 [35]: 400 µg/mL (≈ 1540 µM); IC50 [36]: > 8 µg/mL; IC50 [37]: > 8 µg/mL; IC50 [38]: > 400 µg/mL; IC50 [39]: 47 µg/mL (≈ 181 µM); IC50 [29]: 70 µg/mL (≈ 270 µM); IC50 [30]: > 400 µg/mL; IC50 [32]: > 400 µg/mL; IC50 [33]: > 200 µg/mL |
| COCC1=C[C@@H](n2cnc3c(N)ncnc32)[C@H](O)[C@@H]1O | > 400 | 45 (≈ 162 µM) | > 400 | > 200 | 20 (≈ 72.1 µM) | > 100 | 20 (≈ 72.1 µM) | 20 (≈ 72.1 µM) | 100 (≈ 361 µM) | 40 (≈ 144 µM) | > 100 | > 100 | > 400 | 25 (≈ 90.2 µM) | 70 (≈ 252 µM) | 70 (≈ 252 µM) | 20 (≈ 72.1 µM) | > 400 | 150 (≈ 541 µM) | 40 (≈ 144 µM) | IC50 [35]: 400 µg/mL (≈ 1440 µM); IC50 [6]: > 40 µg/mL; IC50 [7]: 300 µg/mL (≈ 1080 µM); IC50 [9]: 100 µg/mL (≈ 361 µM); IC50 [17]: 200 µg/mL (≈ 721 µM); IC50 [20]: 60 µg/mL (≈ 216 µM); IC50 [38]: > 400 µg/mL; IC50 [23]: > 40 µg/mL; IC50 [29]: 10 µg/mL (≈ 36.1 µM); IC50 [30]: > 200 µg/mL; IC50 [31]: 200 µg/mL (≈ 721 µM); IC50 [32]: > 400 µg/mL; IC50 [33]: > 400 µg/mL |
